Laboratory results from the supplement of paper PMC10627819.

Experiments:
B. subtilis 168 [1] = assay: fitness (endpoint OD595 vs no drug) (fraction); higher = more growth
Summary of the method: (§1)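 Plates with 384 wells were inoculated at OD595 0.01 using 30 µl of TSB, LB Lennox or CY, or 55 µl for S. pneumoniae. Incubation was at 37 °C, with OD595 measured every 30 min for 14 h. Fitness is the stationary-phase transition optical density over the robust mean of no-drug control wells, after first-reading background subtraction; it is capped at 1.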

S. aureus DSM 20231 [2] = assay: as above
Summary of the method: as §1

B. subtilis 168 [3] = assay: Bliss interaction score (quartile over a dose matrix) (fitness difference); higher = more antagonism (negative = synergy)
Summary of the method: (§2)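 Growth was read as OD595 when cultures entered stationary phase, and each value was divided by the plate's robust no-drug mean and capped at 1. This normalised ratio is the fitness value, and fitness for each single drug came from the combination data. The Bliss score subtracts the expected fitness, taken as the product, from the observed fitness and is given as quartiles across technical, biological and donor/recipient replicates.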

S. aureus DSM 20231 [4] = assay: as above
Summary of the method: as §2

S. aureus Newman = assay: as above
Summary of the method: as §2

S. pneumoniae D39V [5] = assay: as above
Summary of the method: as §2

S. pneumoniae D39V [6] = assay: fitness (endpoint OD595 vs no drug) (fraction); higher = more growth
Summary of the method: as §1
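For Bliss interaction score (quartile over a dose matrix) in this document: first quartile when negative (synergy) and third quartile when positive (antagonism).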

CCC[C@@H]1C[C@@H](C(=O)N[C@@H]([C@H]2O[C@H](SC)[C@H](O)[C@@H](O)[C@H]2O)[C@H](C)Cl)N(C)C1 [Clindamycin] + COc1cc(Cc2cnc(N)nc2N)cc(OC)c1OC [Trimethoprim]
fitness, B. subtilis 168 [1], one replicate
Settings | partner 0.1 µg/mL | partner 0.125 µg/mL | partner 0.2 µg/mL | partner 0.25 µg/mL | partner 0.4 µg/mL | partner 0.5 µg/mL | partner 1 µg/mL | partner 2 µg/mL
first compound 0.0039 µg/mL | – | 0.663 | – | 0.563 | – | 0.518 | – | –
first compound 0.0078 µg/mL | – | 0.603 | – | 0.511 | – | 0.481 | – | –
first compound 0.0156 µg/mL | – | 0.596 | – | 0.54 | – | 0.531 | – | –
first compound 0.0625 µg/mL | 0.461 | 0.38 | 0.271 | – | 0.174 | – | 0.041 | 0.0649
first compound 0.125 µg/mL | 0.256 | 0.179 | 0.172 | – | 0.0828 | – | 0.031 | 0.0548
first compound 0.25 µg/mL | 0.126 | 0.0411 | 0.0757 | – | 0.0475 | – | 0.0278 | 0.0626

fitness
Settings | first compound 0.0312 µg/mL | first compound 0.0625 µg/mL | first compound 0.125 µg/mL | first compound 0.25 µg/mL
B. subtilis 168 [1], partner 0.25 µg/mL | – | 0.352 | 0.233 | 0.083
B. subtilis 168 [1], partner 0.5 µg/mL | – | 0.222 | 0.101 | 0.0589
S. aureus DSM 20231 [2], partner 0.125 µg/mL | 0.268 | 0.0676 | 0.0245 | –
S. aureus DSM 20231 [2], partner 0.25 µg/mL | – | 0.125 | 0.0812 | –
S. aureus DSM 20231 [2], partner 0.5 µg/mL | – | 0.0734 | 0.0599 | –
S. aureus DSM 20231 [2], partner 1 µg/mL | 0.124 | 0.0694 | 0.0452 | –

Settings | Bliss interaction score
B. subtilis 168 [3] | -0.144
S. aureus DSM 20231 [4] | 0.0511
S. aureus Newman | 0.196
S. pneumoniae D39V [5] | 0.0411

CCC[C@@H]1C[C@@H](C(=O)N[C@@H]([C@H]2O[C@H](SC)[C@H](O)[C@@H](O)[C@H]2O)[C@H](C)Cl)N(C)C1 [Clindamycin] + CC(=O)NC[C@H]1CN(c2ccc(N3CCOCC3)c(F)c2)C(=O)O1 [Linezolid]
one replicate
Settings | fitness
B. subtilis 168 [1], first compound 0.0039 µg/mL, partner 0.125 µg/mL | 0.943
B. subtilis 168 [1], first compound 0.0039 µg/mL, partner 0.25 µg/mL | 0.772
B. subtilis 168 [1], first compound 0.0039 µg/mL, partner 0.5 µg/mL | 0.448
B. subtilis 168 [1], first compound 0.0078 µg/mL, partner 0.125 µg/mL | 0.853
B. subtilis 168 [1], first compound 0.0078 µg/mL, partner 0.25 µg/mL | 0.632
B. subtilis 168 [1], first compound 0.0078 µg/mL, partner 0.5 µg/mL | 0.118
B. subtilis 168 [1], first compound 0.0156 µg/mL, partner 0.125 µg/mL | 0.835
B. subtilis 168 [1], first compound 0.0156 µg/mL, partner 0.25 µg/mL | 0.624
B. subtilis 168 [1], first compound 0.0156 µg/mL, partner 0.5 µg/mL | 0.385
B. subtilis 168 [1], first compound 0.0625 µg/mL, partner 0.0625 µg/mL | 0.696
B. subtilis 168 [1], first compound 0.125 µg/mL, partner 0.0625 µg/mL | 0.497
B. subtilis 168 [1], first compound 0.25 µg/mL, partner 0.0625 µg/mL | 0.387
S. aureus DSM 20231 [2], first compound 0.0312 µg/mL, partner 1 µg/mL | 0.0507
S. aureus DSM 20231 [2], first compound 0.0625 µg/mL, partner 1 µg/mL | 0.0324
S. aureus DSM 20231 [2], first compound 0.125 µg/mL, partner 1 µg/mL | 0.0362

Settings | fitness
B. subtilis 168 [1], first compound 0.0625 µg/mL, partner 0.125 µg/mL | 0.605
B. subtilis 168 [1], first compound 0.0625 µg/mL, partner 0.25 µg/mL | 0.0905
B. subtilis 168 [1], first compound 0.0625 µg/mL, partner 0.5 µg/mL | 0.0427
B. subtilis 168 [1], first compound 0.125 µg/mL, partner 0.125 µg/mL | 0.502
B. subtilis 168 [1], first compound 0.125 µg/mL, partner 0.25 µg/mL | 0.0971
B. subtilis 168 [1], first compound 0.125 µg/mL, partner 0.5 µg/mL | 0.0448
B. subtilis 168 [1], first compound 0.25 µg/mL, partner 0.125 µg/mL | 0.397
B. subtilis 168 [1], first compound 0.25 µg/mL, partner 0.25 µg/mL | 0.104
B. subtilis 168 [1], first compound 0.25 µg/mL, partner 0.5 µg/mL | 0.0468
S. aureus DSM 20231 [2], first compound 0.0312 µg/mL, partner 0.5 µg/mL | 0.143
S. aureus DSM 20231 [2], first compound 0.0625 µg/mL, partner 0.25 µg/mL | 0.13
S. aureus DSM 20231 [2], first compound 0.0625 µg/mL, partner 0.5 µg/mL | 0.0789
S. aureus DSM 20231 [2], first compound 0.125 µg/mL, partner 0.125 µg/mL | 0.0394
S. aureus DSM 20231 [2], first compound 0.125 µg/mL, partner 0.25 µg/mL | 0.0405
S. aureus DSM 20231 [2], first compound 0.125 µg/mL, partner 0.5 µg/mL | 0.0486
S. pneumoniae D39V [6], first compound 0.0125 µg/mL, partner 0.2 µg/mL | 0.624
S. pneumoniae D39V [6], first compound 0.0125 µg/mL, partner 0.4 µg/mL | 0.45
S. pneumoniae D39V [6], first compound 0.0125 µg/mL, partner 0.8 µg/mL | 0.264
S. pneumoniae D39V [6], first compound 0.015 µg/mL, partner 0.105 µg/mL | 0.81
S. pneumoniae D39V [6], first compound 0.015 µg/mL, partner 0.21 µg/mL | 0.748
S. pneumoniae D39V [6], first compound 0.015 µg/mL, partner 0.42 µg/mL | 0.627
S. pneumoniae D39V [6], first compound 0.025 µg/mL, partner 0.2 µg/mL | 0.412
S. pneumoniae D39V [6], first compound 0.025 µg/mL, partner 0.4 µg/mL | 0.345
S. pneumoniae D39V [6], first compound 0.025 µg/mL, partner 0.8 µg/mL | 0.237
S. pneumoniae D39V [6], first compound 0.03 µg/mL, partner 0.105 µg/mL | 0.707
S. pneumoniae D39V [6], first compound 0.03 µg/mL, partner 0.21 µg/mL | 0.683
S. pneumoniae D39V [6], first compound 0.03 µg/mL, partner 0.42 µg/mL | 0.539
S. pneumoniae D39V [6], first compound 0.05 µg/mL, partner 0.2 µg/mL | 0.176
S. pneumoniae D39V [6], first compound 0.05 µg/mL, partner 0.4 µg/mL | 0.148
S. pneumoniae D39V [6], first compound 0.05 µg/mL, partner 0.8 µg/mL | 0.112
S. pneumoniae D39V [6], first compound 0.06 µg/mL, partner 0.105 µg/mL | 0.579
S. pneumoniae D39V [6], first compound 0.06 µg/mL, partner 0.21 µg/mL | 0.544
S. pneumoniae D39V [6], first compound 0.06 µg/mL, partner 0.42 µg/mL | 0.277

Settings | Bliss interaction score
B. subtilis 168 [3] | 0.215
S. aureus DSM 20231 [4] | 0.027
S. aureus Newman | -0.0929
S. pneumoniae D39V [5] | 0.132

CCC[C@@H]1C[C@@H](C(=O)N[C@@H]([C@H]2O[C@H](SC)[C@H](O)[C@@H](O)[C@H]2O)[C@@H](C)O)N(C)C1 [Lincomycin] + CCN(CC)CCOC(=O)c1ccc(N)cc1 [Procaine]
fitness
Settings | partner 85.5 µg/mL | partner 171 µg/mL | partner 342 µg/mL
B. subtilis 168 [1], first compound 0.1 µg/mL | 0.917 | 0.932 | 0.891
B. subtilis 168 [1], first compound 0.2 µg/mL | 0.899 | 0.922 | 0.862
B. subtilis 168 [1], first compound 0.4 µg/mL | 0.875 | 0.875 | 0.853
S. aureus DSM 20231 [2], first compound 0.1 µg/mL | 0.844 | 0.926 | 0.863
S. aureus DSM 20231 [2], first compound 0.2 µg/mL | 0.749 | 0.837 | 0.821
S. aureus DSM 20231 [2], first compound 0.4 µg/mL | 0.391 | 0.39 | 0.363
S. pneumoniae D39V [6], first compound 0.215 µg/mL | 0.812 | 0.783 | 0.784
S. pneumoniae D39V [6], first compound 0.43 µg/mL | 0.717 | 0.695 | 0.697
S. pneumoniae D39V [6], first compound 0.86 µg/mL | – | 0.39 | 0.495

fitness, S. pneumoniae D39V [6], one replicate
Settings | first compound 0.2 µg/mL | first compound 0.4 µg/mL | first compound 0.8 µg/mL
partner 85.5 µg/mL | 0.748 | 0.673 | 0.0927
partner 171 µg/mL | 0.809 | 0.693 | 0.148
partner 342 µg/mL | 0.746 | 0.665 | 0.126

Settings | Bliss interaction score
B. subtilis 168 [3] | 0.0306
S. aureus DSM 20231 [4] | 0.0558
S. aureus Newman | 0.0563
S. pneumoniae D39V [5] | -0.0294
